Reference: patent US20250289994A1, “METHODS FOR IMPROVING HYDROCARBON PRODUCTION FROM A SUBTERRANEAN FORMATION” (CHEVRON U.S.A. INC., priority 2024, published 2025)

Assay: Static partitioning test for DME in brine and oil
Format: physicochemical
Conditions: room temperature, >12 hours equilibration, 150 psi
Description: To measure partitioning of the miscible solvent in contact with oil and brine for a particular chemical concentration, salinity of aqueous phase, oil type, temperature, and pressure.
Load accumulator #1 with brine and accumulator #2 with oil. Apply vacuum to sapphire cell #1 and sapphire cell #2 on the loading side of the piston. Fill the opposite side with water or lab oil. Prepare loading loop with a known volume with liquid DME at room temperature (pressure >100 psi) to ensure a target concentration of DME when injected. Connect loading loop to sapphire cell #1 (vacuum side) and to accumulator #1. Connect the opposite side of the sapphire (water side) to BPR to keep pressure inside the cell at 150 psi. Then, displace DME from the loop with brine and inject into the sapphire cell #1. Isolate and disconnect the sapphire cell #1. Then, rock the cell until liquid DME and brine get properly mixed and homogenized. Equilibrate aqueous mix for a couple of hours. Connect the accumulator #2 with the sapphire cell #2, and the sapphire cell to the BPR. Then, inject oil into the sapphire cell #2. The volume of the injected oil is the one for the desired aqueous to oil ratio (i.e. 50/50 aqueous to oil by volume). Connect the sapphire cell #1 (DME in aqueous side) to the sapphire cell #2 (oil side) and inject DME in aqueous side to cell #2. The volume of the injected aqueous phase is the one for the desired aqueous to oil ratio. The pressure inside the sapphire cell # is controlled by BPR at 150 psi. Isolate and disconnect the sapphire cell #2. Then, rock the cell until liquid aqueous and oil get properly mixed. Let the cell equilibrate for 12 hours at room temperature (˜70° F.). Prepare a solution of 1:1 by volume of deionized water and methanol. Collect a sample of aqueous phase (DME in brine) from cell #2 and mix it with methanol solution in a volumetric proportion of 1:1. Measure DME concentration in aqueous mixture from previous step via gas chromatography (GC). Then, calculate partitioning of DME in between brine and oil phase, this is the partitioning coefficient.
KDME=DME partitioning coefficient; CDME,aq=mass fraction of DME in aqueous phase at equilibrium; and CDME,oil=mass fraction of DME in oleic phase at equilibrium.
Alternatively, to measuring DME concentration via GC and after isolating and disconnecting sapphire cell #2, both aqueous phase and oleic phase could be separated, and then individually taken to a PVT cell at 1 atm and 70° F. After DME evolves from each phase as gas, amounts of evolved DME could be measured and partitioning coefficient calculated.

SMILES: COC [DME, dimethyl ether]
- DME partition coefficient (0.5% DME + Methanol, Volatile Oil, salinity 115,000 ppm): 1.13
- DME partition coefficient (0.5% DME, Volatile Oil, salinity 0 - DI water): 0.81
- DME partition coefficient (0.5% DME, Volatile Oil, salinity 103,000 ppm): 1.15
- DME partition coefficient (0.5% DME, Volatile Oil, salinity 150,000 ppm): 1.27
- DME partition coefficient (0.5% DME, Volatile Oil, salinity 300,000 ppm): 1.26
- DME partition coefficient (1% DME + Methanol, Black Oil, salinity 115,000 ppm): 1.87
- DME partition coefficient (1% DME + Methanol, Volatile Oil, salinity 115,000 ppm): 2.4
